Measured values as given in US9359298B2, “Cajanine structure analogous compound, preparation method and use” (INSTITUTE OF MEDICINAL BIOTECHNOLOGY, CHINESE ACADEMY OF …, priority 2011, dated 2016).
Values after ≈ are worked out from the molar mass of the structure shown. Read-outs that look alike come from different tables or passages of the source.

Columns and labels:
HIV-1 III B virus = assay: Anti-HIV activity assay (P24 antigen in MT-4 cells); type: cell-based; details: for IC50: Human immunodeficiency virus 1, MT4, 96 h, read-out: HIV IC50
Coxsackie virus B6 = assay: Coxsackie virus activity assay (CPE in Vero cells); type: cell-based; details: for IC50: Vero, read-out: COX-B6 IC50, Vero cells, about 100TCID50, CPE, Reed-Muench
ovariectomized rats = assay: Protective effect on bone osteoporosis in ovariectomized rats; type: in vivo; details: compared with raloxifene
Text: The present invention also relates to anti-osteoporotic effect of said compounds. According to literature reports, pigeonpea stilbene-type compounds belong to phytoestrogens, the anti-osteoporosis effect of natural products has to do with their estrogen-like effects.

[1] = tested on: Influenza A virus (hanfang359/95); assay: Determination of anti-influenza virus activity (CPE in MDCK cells); type: cell-based; details: for IC50: Influenza A virus, MDCK, 36 h
PC12 cells [2] = assay: Neuroprotective activity assay, rotenone injury to PC12 cells (MTT); type: cell-based; details: for viability at 10 µM: Rattus norvegicus, PC-12, 48 h, read-out: rotenone (surviving PC12 cells, MTT 570 nm); for viability at 10 µM / rotenone (surviving PC12 cells, MTT 570 nm): 10 μM test compound, 4 μM rotenone, 48 h, Control 100.0 ± 8.9, Model 73.2 ± 7.8
Method in brief: (§1)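 PC12 cells on poly-lysine plated 24 h, then injured 48 h by serum-free DMEM or 4 μM rotenone with 10 μM test compound present during injury. Viability read by MTT (4 h), absorbance 570 nm.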

HCV = assay: Anti-hepatitis C virus (HCV) activity assay (HCV RNA in Huh7.5 cells); type: cell-based; details: for EC50: Hepatitis C virus, Huh7.5, 72 h, read-out: HCV EC50
Description: Inoculate Huh7.5 cells into 96-well plates to a density of 3×10^4 cells/cm^2, culture for 24h, infect the cells with 45 IU/cell HCV supernatant, meanwhile, add drug solutions or solvent control for treatment.

PC12 cells [3] = assay: Neuroprotective activity assay, serum-deprived injury to PC12 cells (MTT); type: cell-based; details: for viability at 10 µM: Rattus norvegicus, PC-12, 48 h, read-out: serum-deprived (surviving PC12 cells, MTT 570 nm); for viability at 10 µM / serum-deprived (surviving PC12 cells, MTT 570 nm): 10 μM test compound, 48 h, Control 100.0 ± 9.2, Model 69.3 ± 4.1
Method in brief: as §1

[4] = MT-4 cells, HIV-1 III B 100TCID50, 96 h, P24 antigen
[5] = Huh7.5 cells, 72 h, HCV RNA by RT-PCR, Reed-Muench

Compound	IC50 (Coxsackie virus B6) [µg/mL]	IC50 [1] [µg/mL]	viability at 10 µM (PC12 cells [2]) [%]	viability at 10 µM (PC12 cells [3]) [%]	IC50 (HIV-1 III B virus; [4]) [µg/mL]	EC50 (HCV; [5]) [µg/mL]	HIV IC50 (HIV-1 III B virus; [4]) [µg/mL]	Influenza A virus (hanfang359/95) IC50 [1] [µg/mL]	rotenone (surviving PC12 cells, MTT 570 nm) (PC12 cells [2])	HCV EC50 (HCV; [5]) [µg/mL]	serum-deprived (surviving PC12 cells, MTT 570 nm) (PC12 cells [3])	also measured
COc1cc(/C=C/c2ccccc2)c(C(=O)O)c(O)c1CC=C(C)C [Compound 1, 2-hydroxy-3-isopentenyl-4-methoxy-6-[(E)-styryl]benzoic acid]	0.9 (≈ 2.66 µM)	8.9 (≈ 26.3 µM)	72.3 ± 5.9	19.3 ± 1.6	–	–	–	–	–	–	–	IC50 (HIV-1 III B virus): 0.27 µg/mL (≈ 0.798 µM); anti-HIV viral activity (HIV-1 III B virus; statement in words): stronger anti-HIV, HCV viral activities; in vivo anti-osteoporotic effect (ovariectomized rats): stronger in vivo anti-osteoporotic effect than clinical drug raloxifene; EC50 (HCV): 1.21 µg/mL (≈ 3.58 µM); anti-HCV viral activity (HCV; statement in words): stronger anti-HIV, HCV viral activities
COc1cc(/C=C/c2ccccc2)c(C(N)=O)c(O)c1CC=C(C)C [Compound 32, 2-hydroxy-3-isopentenyl-4-methoxy-6-[(E)-styryl]benzamide]	0.54 (≈ 1.6 µM)	0.21 (≈ 0.622 µM)	92.3 ± 1.2	94.5 ± 2.3	0.16 (≈ 0.474 µM)	1.37 (≈ 4.06 µM)	–	–	–	–	–	anti-influenza virus activities compared with the lead compound cajanine ([1]; statement in words): significantly stronger than the lead compound cajanine; protective effect on rotenone injury to PC12 cells (PC12 cells [2]; statement in words): the strongest activities; protective effect on serum-deprived injury to PC12 cells (PC12 cells [3]; statement in words): the strongest activities
CC(C)=CCc1c(O)cc(/C=C/c2ccccc2)c(C(=O)O)c1O [Compound 33, 2,4-dihydroxy-3-isopentenyl-6-[(E)-styryl]benzoic acid]	–	–	–	–	–	–	2.01	2.35	75.6 ± 2.1	1.55	16.8 ± 0.4	COX-B6 IC50 (Coxsackie virus B6; Vero cells, about 100TCID50, CPE, Reed-Muench): 2.31 µg/mL
COC(=O)c1c(CCc2ccccc2)cc(OC)c(CC=C(C)C)c1O [Compound 36, methyl 2-hydroxy-3-isopentenyl-4-methoxy-6-phenethyl benzoate]	> 2.46	> 2.46	72.2 ± 12.2	41 ± 15.4	1.06 (≈ 2.99 µM)	3.86 (≈ 10.9 µM)	–	–	–	–	–	–
COc1cc(CCc2ccccc2)c(C(=O)O)c(O)c1CC=C(C)C [Compound 37, 2-hydroxy-3-isopentenyl-4-methoxy-6-phenethyl benzoic acid]	> 2.05	> 22.2	60.4 ± 7.8	29 ± 11.2	2.09 (≈ 6.14 µM)	12.2 (≈ 35.8 µM)	–	–	–	–	–	–
methyl 2-hydroxy-3-isopentenyl-4-methoxy-6-(4′-methyl-cyclohexylenemethyl)benzoate [Compound 8n]	–	–	–	–	–	–	2.17	>2.06	78.0 ± 9.2	1.06	53.7 ± 3.8	COX-B6 IC50 (Coxsackie virus B6): >6.17 µg/mL
